According to patent publication US20130040882A1, “USE OF FIBROBLAST GROWTH FACTOR FRAGMENTS” (NOVARTIS AG, priority 2003, published 2013):
Values joined by “and” are separate entries in the source; they are usually repeats but may differ in a detail not shown here. Equal values may be shown once. “Also recorded” adds a separate entry of the source.

Key:
bone tissue = assay: Salmon calcitonin/PTS893 monkey study: histomorphometry of bone tissue (tibia, vertebra); assay type: in vivo, cynomolgus monkeys (Macaca fascicularis)
Method: Bone sections were stained for osteonectin, osteopontin and osteocalcin and were evaluated histopathologically. Histomorphometry of the bone tissue was performed regarding parameters for bone resorption and synthesis (osteoid formation).
Histomorphometry of bone tissue was performed to determine parameters related to bone resorption and bone synthesis (osteoid formation).

[1] = system: transcript levels in several organs; assay: In vivo gene expression profiling screen of peptides in mice (Example I); conditions: administration to mice
Method: In this EXAMPLE, 100 unknown chemically synthesized peptides are functionalized using the discovery method of the invention. Most of these peptides are present in human plasma.
As a control, twenty reference drugs are concurrently investigated with the discovery method of the invention. For this screening, one control and four treated groups of six males are treated for two weeks by daily administration by the subcutaneous route of the proteins. The reference drugs can be active for treating conditions in the areas of glaucoma, neuroprotection, neovascularisation, antiangiogenesis, acne, asthma and allergy, cardiovascular diseases, neurological disorder, pain, diabetes, hypercholesterolemia, osteoporosis and oncology.
The expectations from those selected active peptides are that (a) several potential therapeutic drugs could be identified; (b) target peptides for therapeutic antibodies could be identified; (c) new targets for research, deduced from the reconstructed biochemical pathways, could be identified; and (d) biomarkers, to be used to develop diagnostic tests could be identified. […] The protein/peptide selection rate is approximately 20%. The selection/prioritization criteria are the type of activity, the therapeutic interest and the suspected toxicity.

[2] = system: hyperoxia-induced angioproliferative retinopathy; assay: Hypoxic vascular retinopathy mouse model: proliferation score on retinal flatmounts after intravitreal injection; assay type: in vivo, C57/B16J mice; parameters: key to blood vessel tufts: points summed over zones; Zone 2 max 4 P, Zones 3 and 4 max 12 P; avascular zone: scale not given here
Method: Seven days old C57/B16J mice are put together with their nursing parent in a sealed container ventilated by a mixture of oxygen and compressed air to a final oxygen concentration of 75%±2% until day 12. Returned at room air, the animals develop a relative ischemia of the retina with neovascularization starting as early as day 14.
On day 12, when animals returned from the oxygen incubation, a volume of 2.0 μl is injected in the eye using a glass pipette with a diameter of about 150 μm at its tip.
For the intravitreal injection of a substance at day 12, mice are anesthetized by inhalation of isoflurane. Five days later the animals are sacrificed after perfusion with dextran-fluorescein and retinal flatmounts are prepared. The coded whole mounts allow to evaluate the vascular changes of the retinal blindly. The proliferation score includes quantification of the proliferation including the papilla, vascular development, vasoconstriction, retinal bleeding and tortuosity of the vessels, features also seen in human retinal disease.
Of those, 8 animals died during hyperoxia or after injection, 2 animals are not perfused, 5 animals are paraffin embedded for evaluation of neurons, of which only three could be examined, and from 29 of these animals retinal flatmounts are prepared.
Evaluation of the angioproliferative changes in the retinal preparations is performed in a masked way on coded preparations. […] The following features are taken into consideration: neovascularisation of the optic disc, blood vessel tufts formation, large clusters of blood vessel tufts, central vasoconstriction and tortuosity of the vessels. Retinal haemorrhages are not taken into account as they may also result from the intraocular injection.
For each criteria, a defined number of points (P) is assigned, which are summed up to a total proliferation score. The higher the score, the worse the hypoxia induced retinopathy. In detail:
Neovascularisation of the optic disc: either 1 or 0 points are assigned in case optic disc proliferation is measured (1 P) or absence (0 P).
Blood vessel tufts formation: the score for blood vessel tufts is determined by dividing every clock hour of the preparation surface in 4 zones: Zone 1 (optic disc zone) is evaluated in addition; Zone 2: one point for every wing (maximal 4 P); Zone 3: one point for every clock hour (maximal 12 P); and Zone 4: one point for every clock hour (maximal 12 P). Thus, a maximum of 28 points is measured provided that no avascular areas exist, and a maximum of 12 points is calculated in case of complete avascularization.
Large clusters of blood vessel tufts: every large cluster of blood vessel tufts covering more than 3 sectors is counted as one point. Thus, maximal 8 points can be measured provided that no avascular areas exist, and maximal 4 points are assignable for complete avascularization.
Central vasoconstriction: 1 point is assigned to a vasoconstriction of zone 1 of greater than 50%; 1 point is allocated if the vasoconstriction is greater than 50% of every wing of zone 2 and 3. Thus, maximal 1 point can be assigned to zone 1, and maximal 4 points each for zones 2, 3 and 4. Since so far no vasoconstriction is ever observed for zone 4, a maximum of total 9 points (without zone 4) can be allotted.
Tortuosity of the vessels: 2 points are assigned if less than one-third of the vessels are tortuous; if the amount of tortuous blood vessels is between one-third and two-thirds, 4 points are allocated, and in case more than two-thirds of the vessels are tortuous, than 6 points are given.
Proliferation in avascular zones is never observed. This is in principle a mutual exclusion of criteria; the existence of vascular proliferations has a higher impact on the retinopathy score than large avascular areas. Therefore, the maximum score ever counted with this system is 38 points using a substance which is considered to enhance vascular proliferation.
The severity of retinopathy varies from animal to animal. […]

[3] = Routine clinical and biochemical observations in FGF23CTP-treated monkeys; assay type: in vivo, cynomolgus monkey; conditions: 100 μg/day sc, two weeks
[4] = tibia, group mean (males and females)
[5] = tibia, individual animals (males and females)
[6] = vertebra, group mean (males and females)
[7] = vertebra, individual animals (males and females)
[8] = right eye, FGF23CTP intravitreal, individual animals, retinal flatmounts
[9] = treated right eye (FGF23CTP) vs control left eye (PBS), DF 28

## Leu8, Asp10, Lysll, A1a16, G1n18, Thr33, A1a34 human PTH 1-34 [PTS893, Leu8, Asp10, Lysll, A1a16, G1n18, Thr33, A1a34 human PTH 1-34 [hPTH(1-34)]]
Bone tissue; tibia
  Increase in osteoid surface: 49%
  Increase in osteoid volume: 37%
  Increase in the osteoblast surface: 40%
Bone tissue; tibia (T)
  Increase of cortical porosity: 54%
  Reduction of cortical thickness: 18%
Bone tissue; [4]
  BT/TV (trabecular bone volume): 21.72%
  Ct Por (cortical porosity): 2.90%
  Ct Th (cortical thickness): 951.48 μm
  ES/BS (eroded surface): 4.11%
  OS/BS (osteoid surface): 49.25%
  OV/BV (osteoid volume): 9.74%
  Obs/BS (osteoblast surface): 20.28%
  Tb N (trabecular number): 1.85 mm^−1
  Tb Th (trabecular thickness): 117.25 μm
Bone tissue; [5]
  BT/TV (trabecular bone volume): 19.69% and 16.65% and 25.74% and 24.78%
  Ct Por (cortical porosity): 2.76% and 2.94% (2×) and 2.95%
  Ct Th (cortical thickness): 1022.62 μm and 893.43 μm and 950.33 μm and 939.53 μm
  ES/BS (eroded surface): 4.62% and 4.76% and 4.21% and 2.85%
  OS/BS (osteoid surface): 54.84% and 43.57% and 43.63% and 54.97%
  OV/BV (osteoid volume): 11.24% and 9.61% and 8.14% and 9.95%
  Obs/BS (osteoblast surface): 16.16% and 21.25% and 18.46% and 25.25%
  Tb N (trabecular number): 1.52 mm^−1 and 1.79 mm^−1 and 2.13 mm^−1 and 1.97 mm^−1
  Tb Th (trabecular thickness): 129.22 μm and 93.20 μm and 120.52 μm and 126.07 μm
Bone tissue; vertebra
  Increase in osteoid surface: 37%
  Increase in osteoid volume: 213%
  Increase in the osteoblast surface: 24%
Bone tissue; vertebra (V)
  Reduction of cortical thickness and increase of cortical porosity: not in vertebra
Bone tissue; [6]
  BT/TV (trabecular bone volume): 20.95%
  Ct Por (cortical porosity): 1.07%
  Ct Th (cortical thickness): 675.50 μm
  ES/BS (eroded surface): 4.53%
  OS/BS (osteoid surface): 25.36%
  OV/BV (osteoid volume): 4.45%
  Obs/BS (osteoblast surface): 9.56%
  Tb N (trabecular number): 1.68 mm^−1
  Tb Th (trabecular thickness): 123.43 μm
Bone tissue; [7]
  BT/TV (trabecular bone volume): 15.15% and 20.23% and 23.56% and 24.86%
  Ct Por (cortical porosity): 1.49% and 1.45% and 0.41% and 0.92%
  Ct Th (cortical thickness): 707.43 μm and 629.35 μm and 740.87 μm and 624.35 μm
  ES/BS (eroded surface): 9.31% and 2.30% and 2.55% and 3.96%
  OS/BS (osteoid surface): 18.84% and 41.28% and 23.65% and 17.66%
  OV/BV (osteoid volume): 3.24% and 8.42% and 3.49% and 2.66%
  Obs/BS (osteoblast surface): 10.36% and 9.07% and 10.47% and 8.33%
  Tb N (trabecular number): 1.44 mm^−1 and 1.70 mm^−1 and 1.75 mm^−1 and 1.84 mm^−1
  Tb Th (trabecular thickness): 105.46 μm and 118.79 μm and 134.66 μm and 134.82 μm

B1: FGF23CTP: unique 75-mer COOH-terminal peptide of FGF-23, SEQ ID NO: 2 (peptide, listed as Homo sapiens)
chain: HTRSAEDDSERDPLNVLKPRARMTPAPASCSQELPSAEDNSPMASDPLGVVRGGRVNTHAGGTGPEGCRPFAKFI
[1]
  Transcript level changes in several organs (activity): active
[2]; 6 μg intravitreal, DF 28, P-Value 0.0375
  Proliferation score, Mean Difference (paired t-test, treated right eye vs PBS left eye): −3.172
[2]; intravitreal injection, b229 p=0.018, b476 paired t-test p=0.04
  Effect on proliferative component of retinal angiopathy / proliferation score: significantly inhibited; also recorded: reaches statistical significance
[2]; [8]
  avascular zone: 1 (7×) and 2 (4×) and 0 (3×) and 3 (7×) and 4 (4×) and 7 and 6 (2×) and 5
  blood vessel tufts: 6 (4×) and 2 (3×) and 4 (3×) and 1 (2×) and 3 and 5 (2×) and 0 (2×) and 7 (4×) and 10 (3×) and 14 (2×) and 13 and 11 and 9
  large clusters of prolif.: 0 (16×) and 1 (6×) and 2 (2×) and 3 (2×) and 4 (2×) and 5
  proliferation sum: 7 (2×) and 2 (3×) and 4 (4×) and 1 (2×) and 6 (4×) and 5 and 0 (2×) and 8 (2×) and 10 (2×) and 11 and 17 and 12 (2×) and 18 (2×) and 14
  tortuosity of vessels: 0 (8×) and 2 (7×) and 3 and 1 (9×) and 5 and 6 (2×) and 4
[2]; [9]
  Paired t-test avascular zone: Mean Difference: −0.034
  Paired t-test proliferation sum: Mean Difference: −2.724
  Paired t-test tortuosity of the vessels: Mean Difference: −0.517
[3]
  Effect on phosphate metabolism: no effect
  Routine clinical or biochemical changes: No routine clinical or biochemical changes
